The test concerns the target T1, Protoporphyrinogen oxidase (Bacillus subtilis (strain 168), UniProt P32397).
T1 sequence (P32397 whole entry): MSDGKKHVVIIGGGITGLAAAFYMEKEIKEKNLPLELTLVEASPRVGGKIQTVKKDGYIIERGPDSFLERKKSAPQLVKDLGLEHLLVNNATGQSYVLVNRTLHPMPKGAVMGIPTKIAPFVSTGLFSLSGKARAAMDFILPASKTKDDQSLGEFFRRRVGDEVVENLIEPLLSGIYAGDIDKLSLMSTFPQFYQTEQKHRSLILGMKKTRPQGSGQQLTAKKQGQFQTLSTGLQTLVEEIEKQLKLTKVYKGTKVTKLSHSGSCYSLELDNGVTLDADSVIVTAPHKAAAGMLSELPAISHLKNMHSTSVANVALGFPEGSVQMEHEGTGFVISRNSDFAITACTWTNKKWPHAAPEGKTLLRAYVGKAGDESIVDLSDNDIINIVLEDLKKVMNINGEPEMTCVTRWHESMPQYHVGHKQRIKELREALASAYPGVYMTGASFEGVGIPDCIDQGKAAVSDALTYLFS
The experiment in a line: Inhibition of Bacillus subtilis Protoporphyrinogen oxidase by capillary electrophoresis.
As to `C#CCN1C(=O)C(C)Oc2cc(F)c(N3C(=O)c4cccc(F)c4C3=O)cc21` (stereo not given), the affinity corresponds to a Ki of 5010 nM.
Next, `O=C(NC(=O)c1ccc(Cl)cc1Cl)Nc1cc(N2C(=O)C3=C(CCCC3)C2=O)c(F)cc1Cl`: 26.9 nM.
Next, `CCOC(=O)C(C)N1C(=O)C(C)Oc2cc(F)c(N3C(=O)C4=C(CCCC4)C3=O)cc21` (stereo not given): 110 nM.
Next, `CC(C)N(C(=O)Nc1cc(N2C(=O)C3=C(CCCC3)C2=O)c(F)cc1Cl)C(C)C`: 229 nM; `COC(=O)CN1C(=O)C(C)Oc2cc(F)c(N3C(=O)C4=C(CCCC4)C3=O)cc21` (stereo not given): 39.8 nM.
As to `O=C(NC(=O)c1ccccc1)Nc1cc(N2C(=O)C3=C(CCCC3)C2=O)c(F)cc1Cl`, the affinity, expressed as Ki, was 89.1 nM. Against the preceding compound, the Ki is about 2.2-fold higher.
To `COC(=O)C(C)N1C(=O)C(C)Oc2cc(F)c(N3C(=O)C4=C(CCCC4)C3=O)cc21` (stereo not given) belongs 49 nM; to `CCC(C(=O)OC)N1C(=O)COc2cc(F)c(N3C(=O)C4=C(CCCC4)C3=O)cc21` (stereo not given), 8.13 nM.
Next, `O=C(NC(=O)c1cccc(OC(F)(F)F)c1)Nc1cc(N2C(=O)C3=C(CCCC3)C2=O)c(F)cc1Cl`: 33.9 nM; `CCOC(=O)C(C)N1C(=O)COc2cc(F)c(N3C(=O)C4=C(CCCC4)C3=O)cc21` (stereo not given): 120 nM; `O=C(NC(=O)c1c(Cl)cccc1Cl)Nc1cc(N2C(=O)C3=C(CCCC3)C2=O)c(F)cc1Cl`: 12.9 nM.
As to `CCOC(=O)CN1C(=O)C(C)Oc2cc(F)c(N3C(=O)C4=C(CCCC4)C3=O)cc21` (stereo not given), the Ki – broadly, the equilibrium dissociation constant of an inhibitor or competing ligand from its target – is 60.3 nM.
To `CNC(=O)Nc1cc(N2C(=O)C3=C(CCCC3)C2=O)c(F)cc1Cl` belongs 372 nM; to `O=C(Nc1cccc(C(F)(F)F)c1)Nc1cc(N2C(=O)C3=C(CCCC3)C2=O)c(F)cc1Cl`, 25.1 nM; to `C#CCN1C(=O)COc2cc(F)c(N3C(=O)c4ccc(C)cc4C3=O)cc21`, 2820 nM.
The compound `O=C(Nc1ccc(Cl)cc1)Nc1cc(N2C(=O)C3=C(CCCC3)C2=O)c(F)cc1Cl` showed a Ki of 28.2 nM.
To `CCCN(CCC)C(=O)Nc1cc(N2C(=O)C3=C(CCCC3)C2=O)ccc1Cl` belongs 288 nM; to `CC(C)(CCl)C(=O)Nc1cc(N2C(=O)C3=C(CCCC3)C2=O)c(F)cc1Cl`, 871 nM; to `N#CCN1C(=O)COc2cc(F)c(N3C(=O)c4ccccc4C3=O)cc21`, 1020 nM.
Next, `O=C(NC(=O)c1ccccc1)Nc1cc(N2C(=O)C3=C(CCCC3)C2=O)ccc1Cl`: 6170 nM; `C#CCN1C(=O)COc2cc(F)c(N3C(=O)c4ccccc4C3=O)cc21`: 3310 nM; `C#CCN1C(=O)C(C)Oc2cc(F)c(N3C(=O)c4ccc(C)cc4C3=O)cc21` (stereo not given): 4790 nM.
Next, `CCOC(=O)C(CC)N1C(=O)COc2cc(F)c(N3C(=O)C4=C(CCCC4)C3=O)cc21` (stereo not given): 44.7 nM; `O=C(NC(=O)c1c(F)cccc1Cl)Nc1cc(N2C(=O)C3=C(CCCC3)C2=O)c(F)cc1Cl`: 8.32 nM.
In turn, `CCOC(=O)C(c1ccccc1)N1C(=O)C(C)Oc2cc(F)c(N3C(=O)C4=C(CCCC4)C3=O)cc21` (stereo not given) showed an inhibition constant (Ki) of 91.2 nM.

(Values after ChEMBL document CHEMBL1154103, “Bioactive conformation analysis of cyclic imides as protoporphyrinogen oxidase inhibitor by combining DFT calculations, QSAR and molecular dynamic simulations” (Bioorg Med Chem, 2009).)
